Test results taken from the NIST ThermoML archive (doi:10.1016/j.jct.2004.01.006).
Where “and” joins values, the source holds several entries; their conditions need not be identical. Identical values can stand only once.

Test: molar heat capacity at constant pressure
Details: 101.33 kPa

O=Cc1ccc(Cl)cc1Cl [2,4-dichlorobenzaldehyde]
Details	molar heat capacity at constant pressure
79.17 K, Crystal	71.3 J/K/mol
80 K, Crystal	71.33 J/K/mol
81.36 K, Crystal	72.02 J/K/mol
83.11 K, Crystal	72.63 J/K/mol
85 K, Crystal	73.98 J/K/mol
85.3 K, Crystal	73.72 J/K/mol
87.49 K, Crystal	74.91 J/K/mol
89.6 K, Crystal	76.29 J/K/mol
90 K, Crystal	76.75 J/K/mol
91.66 K, Crystal	77.86 J/K/mol
93.69 K, Crystal	79.02 J/K/mol
95 K, Crystal	79.6 J/K/mol
95.68 K, Crystal	80.2 J/K/mol
97.64 K, Crystal	81.37 J/K/mol
99.56 K, Crystal	82.67 J/K/mol
100 K, Crystal	82.48 J/K/mol
101.45 K, Crystal	83.56 J/K/mol
103.32 K, Crystal	84.39 J/K/mol
105 K, Crystal	85.38 J/K/mol
105.16 K, Crystal	85.43 J/K/mol
106.97 K, Crystal	86.65 J/K/mol
108.76 K, Crystal	87.94 J/K/mol
110 K, Crystal	88.26 J/K/mol
110.53 K, Crystal	88.83 J/K/mol
112.28 K, Crystal	89.53 J/K/mol
114 K, Crystal	90.58 J/K/mol
115 K, Crystal	91.11 J/K/mol
115.71 K, Crystal	91.48 J/K/mol
117.4 K, Crystal	92.47 J/K/mol
119.07 K, Crystal	93.42 J/K/mol
120 K, Crystal	93.92 J/K/mol
120.73 K, Crystal	94.06 J/K/mol
122.36 K, Crystal	94.81 J/K/mol
123.99 K, Crystal	95.87 J/K/mol
125 K, Crystal	96.69 J/K/mol
125.6 K, Crystal	96.98 J/K/mol
127.19 K, Crystal	97.8 J/K/mol
128.78 K, Crystal	98.46 J/K/mol
130 K, Crystal	99.4 J/K/mol
130.34 K, Crystal	99.55 J/K/mol
131.9 K, Crystal	100.68 J/K/mol
133.44 K, Crystal	101.08 J/K/mol
134.97 K, Crystal	101.62 J/K/mol
135 K, Crystal	102.07 J/K/mol
136.49 K, Crystal	102.52 J/K/mol
138 K, Crystal	103.61 J/K/mol
139.5 K, Crystal	104.14 J/K/mol
140 K, Crystal	104.7 J/K/mol
140.99 K, Crystal	104.87 J/K/mol
142.47 K, Crystal	105.48 J/K/mol
143.93 K, Crystal	106.66 J/K/mol
145 K, Crystal	107.29 J/K/mol
145.39 K, Crystal	107.75 J/K/mol
146.84 K, Crystal	108.26 J/K/mol
148.28 K, Crystal	109.04 J/K/mol
149.71 K, Crystal	109.83 J/K/mol
150 K, Crystal	109.85 J/K/mol
151.13 K, Crystal	111.12 J/K/mol
152.54 K, Crystal	111.74 J/K/mol
153.94 K, Crystal	112.08 J/K/mol
155 K, Crystal	112.39 J/K/mol
155.34 K, Crystal	112.93 J/K/mol
157.51 K, Crystal	113.86 J/K/mol
160 K, Crystal	114.92 J/K/mol
160.42 K, Crystal	115.39 J/K/mol
163.32 K, Crystal	116.39 J/K/mol
165 K, Crystal	117.44 J/K/mol
166.18 K, Crystal	117.94 J/K/mol
169.01 K, Crystal	119.36 J/K/mol
170 K, Crystal	119.97 J/K/mol
171.81 K, Crystal	121.11 J/K/mol
174.59 K, Crystal	122.69 J/K/mol
175 K, Crystal	122.52 J/K/mol
177.33 K, Crystal	124.06 J/K/mol
180 K, Crystal	125.09 J/K/mol
180.05 K, Crystal	125.43 J/K/mol
182.75 K, Crystal	126.44 J/K/mol
185 K, Crystal	127.68 J/K/mol
185.43 K, Crystal	127.77 J/K/mol
190 K, Crystal	130.3 J/K/mol
190.71 K, Crystal	130.68 J/K/mol
193.31 K, Crystal	131.82 J/K/mol
195 K, Crystal	133 J/K/mol
195.91 K, Crystal	133.03 J/K/mol
198.41 K, Crystal	134.61 J/K/mol
200 K, Crystal	135.65 J/K/mol
200.76 K, Crystal	135.6 J/K/mol
203.12 K, Crystal	136.47 J/K/mol
205 K, Crystal	138.37 J/K/mol
205.61 K, Crystal	137.67 J/K/mol
208.11 K, Crystal	139.14 J/K/mol
210 K, Crystal	141.12 J/K/mol
210.61 K, Crystal	140.62 J/K/mol
213.05 K, Crystal	142.39 J/K/mol
215 K, Crystal	143.89 J/K/mol
215.46 K, Crystal	143.66 J/K/mol
217.88 K, Crystal	145.35 J/K/mol
220 K, Crystal	146.69 J/K/mol
220.3 K, Crystal	147.01 J/K/mol
222.73 K, Crystal	148.63 J/K/mol
225 K, Crystal	149.5 J/K/mol
225.15 K, Crystal	150.44 J/K/mol
227.5 K, Crystal	152.1 J/K/mol
229.92 K, Crystal	153.24 J/K/mol
230 K, Crystal	152.31 J/K/mol
232.35 K, Crystal	154.92 J/K/mol
234.92 K, Crystal	156.38 J/K/mol
235 K, Crystal	155.12 J/K/mol
237.8 K, Crystal	157.76 J/K/mol
240 K, Crystal	157.9 J/K/mol
240.46 K, Crystal	159.08 J/K/mol
242.88 K, Crystal	160.14 J/K/mol
245 K, Crystal	160.64 J/K/mol
245.08 K, Crystal	161.43 J/K/mol
247.12 K, Crystal	162.34 J/K/mol
249.24 K, Crystal	163.27 J/K/mol
250 K, Crystal	163.39 J/K/mol
251.44 K, Crystal	164.55 J/K/mol
253.56 K, Crystal	165.45 J/K/mol
255 K, Crystal	166.07 J/K/mol
255.68 K, Crystal	166.2 J/K/mol
257.73 K, Crystal	166.92 J/K/mol
259.85 K, Crystal	167.67 J/K/mol
260 K, Crystal	168.69 J/K/mol
261.89 K, Crystal	168.77 J/K/mol
264.01 K, Crystal	169.61 J/K/mol
265 K, Crystal	171.25 J/K/mol
266.06 K, Crystal	170.55 J/K/mol
268.03 K, Crystal	171.61 J/K/mol
270 K, Crystal	173.73 J/K/mol
270.08 K, Crystal	172.38 J/K/mol
272.05 K, Crystal	173.75 J/K/mol
274.01 K, Crystal	174.95 J/K/mol
275 K, Crystal	176.14 J/K/mol
275.99 K, Crystal	175.77 J/K/mol
277.95 K, Crystal	176.86 J/K/mol
279.85 K, Crystal	177.84 J/K/mol
280 K, Crystal	178.48 J/K/mol
281.74 K, Crystal	178.91 J/K/mol
283.64 K, Crystal	179.72 J/K/mol
285 K, Crystal	180.75 J/K/mol
285.53 K, Crystal	180.86 J/K/mol
287.42 K, Crystal	181.6 J/K/mol
289.24 K, Crystal	182.74 J/K/mol
290 K, Crystal	182.93 J/K/mol
291.06 K, Crystal	183.73 J/K/mol
292.88 K, Crystal	184.79 J/K/mol
294.62 K, Crystal	185.72 J/K/mol
295 K, Crystal	185.12 J/K/mol
296.36 K, Crystal	186.66 J/K/mol
298.03 K, Crystal	187.45 J/K/mol
298.15 K, Crystal	186.47 J/K/mol
299.7 K, Crystal	187.95 J/K/mol
301.36 K, Crystal	188.77 J/K/mol
303.86 K, Crystal	189.94 J/K/mol
305 K, Crystal	189.4 J/K/mol
306.12 K, Crystal	191.07 J/K/mol
308.39 K, Crystal	191.8 J/K/mol
310 K, Crystal	191.58 J/K/mol
310.67 K, Crystal	192.53 J/K/mol
312.95 K, Crystal	193.73 J/K/mol
315 K, Crystal	193.86 J/K/mol
319.7 K, Crystal	196.52 J/K/mol
320 K, Crystal	196.27 J/K/mol
321.89 K, Crystal	197.35 J/K/mol
324.09 K, Crystal	198.21 J/K/mol
325 K, Crystal	198.9 J/K/mol
326.21 K, Crystal	199.12 J/K/mol
328.41 K, Crystal	199.91 J/K/mol
330 K, Crystal	201.83 J/K/mol
330.53 K, Crystal	200.78 J/K/mol
332.65 K, Crystal	201.79 J/K/mol
334.67 K, Crystal	202.59 J/K/mol
335 K, Crystal	205.15 J/K/mol
336.74 K, Crystal	203.39 J/K/mol
338.77 K, Crystal	205.71 J/K/mol
340 K, Crystal	208.96 J/K/mol
350 K, Liquid	208.08 J/K/mol
350.08 K, Liquid	208.1 J/K/mol
351.82 K, Liquid	208.76 J/K/mol
353.56 K, Liquid	209.27 J/K/mol
355 K, Liquid	209.85 J/K/mol
355.74 K, Liquid	210.16 J/K/mol
357.14 K, Liquid	210.51 J/K/mol
358.64 K, Liquid	210.8 J/K/mol
360 K, Liquid	211.16 J/K/mol
361.51 K, Liquid	211.51 J/K/mol
362.95 K, Liquid	211.74 J/K/mol
364.32 K, Liquid	212.33 J/K/mol
365 K, Liquid	212.44 J/K/mol
365.61 K, Liquid	212.74 J/K/mol
366.82 K, Liquid	213.06 J/K/mol
367.95 K, Liquid	213.48 J/K/mol
369.01 K, Liquid	213.84 J/K/mol
369.7 K, Liquid	214.36 J/K/mol
370 K, Liquid	214.39 J/K/mol and 214.31 J/K/mol
370.76 K, Liquid	214.45 J/K/mol
371.51 K, Liquid	214.51 J/K/mol and 214.66 J/K/mol
